Source: patent publication US20110195404A1, “SYSTEMS AND METHODS FOR DETERMINING CALCIUM LEVELS” (priority 2010, published 2011)
“And” between values parts separate entries of the source, which are not always exact repeats. Equal entries are not always repeated.

What was measured:
α-amylase = biological target: T1, α-amylase (Homo sapiens, UniProt P0DUB6); experiment: α-Amylase inhibition saliva screening (2-chloro-p-nitrophenol-maltotriose substrate, absorbance 405 nm); type: biochemical; details: 37° C.; for α-amylase assay reading (absorbance at 405 nm), single replicate: test compound prepared at 5,000 ppm
T1 sequence (P0DUB6 16-511): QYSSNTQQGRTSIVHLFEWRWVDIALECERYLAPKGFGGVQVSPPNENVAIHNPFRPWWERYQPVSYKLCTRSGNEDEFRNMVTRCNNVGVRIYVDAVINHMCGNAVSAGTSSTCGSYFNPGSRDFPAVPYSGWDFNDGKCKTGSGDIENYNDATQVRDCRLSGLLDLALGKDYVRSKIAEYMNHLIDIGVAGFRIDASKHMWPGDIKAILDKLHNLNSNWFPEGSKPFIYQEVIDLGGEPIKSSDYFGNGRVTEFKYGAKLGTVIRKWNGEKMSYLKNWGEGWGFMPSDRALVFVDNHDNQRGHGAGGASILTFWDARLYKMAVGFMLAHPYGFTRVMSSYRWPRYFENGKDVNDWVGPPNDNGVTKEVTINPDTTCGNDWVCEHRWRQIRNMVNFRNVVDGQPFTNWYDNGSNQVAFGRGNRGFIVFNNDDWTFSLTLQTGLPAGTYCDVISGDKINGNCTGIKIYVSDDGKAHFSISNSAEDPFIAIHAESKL
Description: Enzymatic activity of α-amylase on the substrate yields 2-chloro-p-nitrophenol, which can be measured spectrophotometrically at 405 nm. The amount of α-amylase activity present in the experimental sample is directly proportional to the increase in absorbance at 405 nm.

Lysozyme = biological target: T2, Lysozyme (Homo sapiens, UniProt P61626); experiment: Lysozyme inhibition saliva screening (fluorescein-labeled Micrococcus lysodeikticus); type: biochemical
T2 sequence (P61626 19-148): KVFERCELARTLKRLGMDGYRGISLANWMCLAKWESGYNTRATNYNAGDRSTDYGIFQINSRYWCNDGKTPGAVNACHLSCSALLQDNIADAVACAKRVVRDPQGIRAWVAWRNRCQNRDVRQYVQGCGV
Description: The assay measures lysozyme activity on Micrococcus lysodeikticus cell walls, which are labeled to such a degree that the fluorescence is quenched. Lysozyme activity can relieve this quenching; yielding increased fluorescence that is proportional to lysozyme activity.

Question: How did the “α-amylase assay reading, Ave” value (α-amylase; 0 min, 5,000 ppm) turn out when “Aluminum potassium sulfate dodecahydrate [CDI-42]” was run?
Answer: 0.92

Question: What about the “α-amylase assay reading (absorbance at 405 nm), single replicate” value (“α-amylase assay reading … single replicate” for short) (α-amylase; 0 min) of the same molecule?
Answer: 0.80 and 0.90 and 0.84

Question: What about the “α-amylase assay reading … single replicate” value (α-amylase; 5 min) of the same molecule?
Answer: 1.80

Question: For Aluminum sulfate hydrate [CDI-34], which “α-amylase assay reading, Ave” value (α-amylase; 0 min, 5,000 ppm) is on record?
Answer: 0.40

Question: And the “α-amylase assay reading … single replicate” value (α-amylase; 0 min, sulfate hydrate)?
Answer: 0.40 (2×) and 0.36 and 0.45

Question: And the “α-amylase assay reading, Ave” value (α-amylase; 5 min, 5,000 ppm)?
Answer: 0.50

Question: What about the “α-amylase assay reading … single replicate” value (α-amylase; 5 min, sulfate hydrate) of the same molecule?
Answer: 0.49 and 0.50 (2×) and 0.52

Question: What about the “α-amylase assay reading, Ave” value (α-amylase; 15 min, 5,000 ppm) of the same molecule?
Answer: 0.56

Question: And the “α-amylase assay reading … single replicate” value (α-amylase; 15 min, sulfate hydrate)?
Answer: 0.53 and 0.61 and 0.54 and 0.56

Question: For `CC(=O)O` [CDI-047, Acetic acid], which “inhibition of Lysozyme” value (Lysozyme; 100% saliva samples (data not shown)) is on record?
Answer: inhibit Lysozyme

Question: What about the “Lysozyme Inhibitor Activity” value (Lysozyme; dilute (3.5%) saliva, FIG. 12) of the same molecule?
Answer: Lysozyme Inhibitor Activity
